Results published in US20260272908A1 (VANDERBILT UNIVERSITY, priority 2023, published 2026).

What was measured:
[1] = tested on: Mist1-Kras mice; assay: Pyrvinium treatment of Mist1-Kras mice (metaplasia progression to dysplasia, gastric corpus histology and immunostaining); type: in vivo, mouse
Procedure: FIG. 5B schematically illustrates the H&E (top) and immunostaining for UEA1 (middle) and Ki-67 (bottom) in the wild type mice treated with Pyr for 2 weeks and Mist1-Kras mice treated with DMSO or Pyr for 1 or 2 weeks. FIG. 5C schematically illustrates the quantitation of Ki-67-positive cells per 20× field. […] Mean±standard deviation. Unpaired t-test or one-way ANOVA with Tukey's multiple comparisons. ns, not significant. *P<0.05. **P<0.01. ***P<0.001. Scale bar=100 μM.
To prepare formaldehyde-fixed paraffin-embedded (FFPE) organoids/spheres, Matrigel domes containing organoids/spheres were fixed in 4% PFA at room temperature for 30 min. The fixed organoids were embedded in HistoGel™ (Thermo Fisher Scientific) followed by a wash in PBS for 1 min and processed according to a standard histological protocol for paraffin embedding. Human tissues were fixed in 10% neutral buffered formalin (NBF) for 1 week at room temperature and mouse tumor tissues were fixed in 4% paraformaldehyde (PFA) solution overnight at 4° C. The fixed tissues were transferred into 70% ethanol and processed according to a standard histological protocol for subsequent paraffin embedding. Four to five micrometers of organoid/sphere or tissue paraffin sections were de-paraffinized in Histoclear solution (Electron Microscopy Services) and rehydrated through a series of ethanol (100%, 95% and 75%).
Antigen retrieval was performed using a pH 6 or pH 9 target retrieval solution (Dako) in a pressure cooker for 15 min and cooled for 1 hour. For immunofluorescence staining, each section was incubated in serum-free protein block solution (Dako) at room temperature for 1.5 hours. Primary antibodies were diluted in Antibody Diluent with background reducing components (Dako) and applied to sections, then incubated overnight at 4° C. Slides were washed in PBS for 5 min three times and secondary antibodies diluted in Antibody Diluent (Dako) were applied to each section. Sections were incubated at room temperature for 1 hour and PBS with Hoechst (1:5000) was applied to the sections for 5 min for nuclei counterstaining. Slides were washed in PBS for 5 min three times, mounted with ProLong™ Gold Antifade Mountant (ThermoFisher) and cover slipped. All fluorescence images were acquired using a Zeiss Axio Imager M2 microscope with Axiovision digital imaging system or scanned using the Aperio Versa 200 Fluorescent Slide Scanner (Leica) at the Vanderbilt Digital Histology Shared Resource. Preparation and overlay of fluorescence images were performed using Adobe Photoshop.
For immunohistochemical staining, sections were blocked in Peroxidase Blocking Solution (Vector Laboratories) at room temperature for 20 min followed by serum-free protein block solution (Dako) at room temperature for 1.5 hours. Primary antibodies were diluted in Antibody Diluent with background reducing components (Dako) and applied to sections, then incubated overnight at 4° C. Horseradish-peroxidase (HRP)-conjugated secondary antibodies were applied to sections and incubated for 15 min at room temperature followed by three washes in PBS for 5 min each. ImmPRESS polymer detection reagent and ImmPACT DAB substrate kits (Vector Laboratories) were used for antibody detection. Images were scanned on a SCN400 slide scanner (Leica) at 20× magnification.
One or two weeks after either DMSO or pyrvinium treatment, gastric mucosa in each group of mice was examined.

[2] = tested on: p-ERK; assay: Western blot for phospho-ERK in hPCO lines; type: cell-based, human
Description: FIG. 7C-7D show Western blot analysis for p-STAT3 and p-ERK in three Pyr-resistant hPCO lines after Pyr treatment (FIG. 7C) and ratios of p-STAT3/t-STAT3 and p-ERK/t-ERK (FIG. 7D). FIG. 7E-7F show a Western blot for basal p-STAT3 and p-ERK levels in Pyr-sensitive and Pyr-resistant hPCO lines (FIG. 7E), and ratios of p-STAT3/t-STAT3 and p-ERK/t-ERK (FIG. 7F). FIG. 7G-7H show a Western blot for p-STAT3 and p-ERK in hPCO-3 after treatment of trametinib (Tra), Pyr, and their combinations (FIG. 7G), and ratios of p-STAT3/t-STAT3 and p-ERK/t-ERK (FIG. 7H). […] FIG. 7K-7L show phase-contrast images of Pyr-sensitive hPCO-2 treated with DMSO, Pyr, STAT3-IN-1, Sttatic, and Cryptotanshinone (CPT) for 6 days (FIG. 7K) and quantitation of organoid diameters before and after treatment (FIG. 7L). Mean±standard deviation. […]
Total proteins were extracted from organoids using radioimmunoprecipitation assay buffer (10 mmol/L Tris-HC, pH 7.2, 150 mmol/L NaCl, 5 mmol/L EDTA, 0.1% sodium dodecyl sulfate, 1.0% Triton X-100, 1% deoxycholate) with protease inhibitors. The protein concentration was measured The Bio-Rad Protein Assay (Bio-Rad Laboratories, Hercules, CA). […] After washes with TBS-T, chemiluminescence was detected with an Amersham Imager 680 instrument (GE Healthcare) after 1 mL of the SuperSignal West Femto Maximum Sensitivity Substrate (ThermoFisher) was applied to the membranes.

[3] = tested on: Meta4 organoids; conditions: pyrvinium, 1 day
[4] = tested on: Mist1-Kras mice; assay: Pyrvinium treatment of Mist1-Kras mice (metaplasia progression to dysplasia, gastric corpus histology and immunostaining); type: in vivo, mouse; conditions: pyrvinium 2 weeks, qRT-PCR
[5] = tested on: human pre-cancerous organoid (hPCO) lines; assay: Human precancerous organoid (hPCO) growth and organoid death
Procedure: To establish human pre-cancer organoids (hPCO), fresh tissues were obtained from the gastric cancer patients who underwent curative gastrectomy at SNUH (IRB No. H-1806-166-954).
Meta3, Meta4, and hPCO organoids were cultured in Matrigel (ECM, Sigma) with Mouse or Human IntestiCult medium (StemCell Technology) supplemented with 1% of penicillin/streptomycin (Gibco) in 48-well plates and medium was replaced every 3 days. The organoids were split every 5-7 days before they formed budding structures.
Mouse or human organoids were split and cultured in the Mouse or Human IntestiCult media for 1-2 days until they formed three-dimensional (3D) spherical structures, then the media was switched to media containing either DMSO vehicle or a certain concentration of each drug and cultured for 3 days. The EVOS M7000 inverted microscope were used to obtain phase contrast images of organoids. All experiments were repeated at least three times.
The number and diameters of mouse and human organoids treated with drugs were manually counted and measured at day 0 and 3 or 6 after treatment from four entire well images of each condition at 4× magnification. For counting live or dead cells, organoids were stained with Calcein AM for live cells and EthD-1 for dead cells 3 days after treatment and the number of EthD-1 positive organoids were manually counted from images taken from three wells of each condition at 4× magnification. All experiments were performed at least in triplicate. The mean values from each condition were compared by Student's paired or unpaired t-test using Graphpad Prism. *P<0.05, **P<0.01, ***P<0.001, ****P<0.0001.

[6] = Mist1-Kras mice 3 months after tamoxifen, pyrvinium 1 or 2 weeks
[7] = Mist1-Kras mice, pyrvinium 2 weeks

## Cc1cc(/C=C/c2ccc3cc(N(C)C)ccc3[n+]2C)c(C)n1-c1ccccc1 [pyrvinium]
[1]; [6]
  acid-secreting parietal cells in corpus mucosa: gradually repopulated the corpus mucosa
  number of hyperplastic foveolar glands with UEA1 and Ki-67 positive proliferating cells: significantly decreased
[1]; [7]
  CD4^+ T cell population: dramatic decrease
  CD8^+ T cells: did not show a significant difference
  CD19^+ B cells: did not show a significant difference
  CD163-positive M2-macrophages: significantly decreased
  NK cells: significantly decreased
  Pim-1 (immunostaining, gastric corpus): downregulation
  number of dysplastic glands: significant decrease
  p-STAT3 (immunostaining, gastric corpus): downregulation
  total number of CD3^+ T cells: decreased
[2]; three pyrvinium-resistant hPCO lines
  p-ERK levels: no significant differences
[2]; three pyrvinium-sensitive hPCO lines
  p-ERK levels: decreased
[3]
  DSC (dysplastic stem cell) subpopulation: not observed
  STAT3-target genes Fos, Fosb, and Jun: downregulated
  binding and transcription regulator activities (PANTHER gene ontology): decreased
  cells damaged and mostly differentiated cells among treated cells: over 73.9%
  damage-related genes Dusp4, Ddit3 and Areg: upregulated
[4]
  expression of myeloid-derived suppressor cell (MDSC)-related markers: tended to increase, although the changes were not significant
[5]; hPCO with metaplastic features
  growth of metaplastic cells in hPCO lines: growth arrest
[5]; of twenty hPCO lines, 6 days
  number of hPCO lines classified pyrvinium-moderate: six
  number of hPCO lines classified pyrvinium-resistant: nine
  number of hPCO lines classified pyrvinium-sensitive: Five
